Data reported in patent publication US7087619B2, “Method for the treatment of urinary incontinence” (Endo Pharmaceuticals, Inc., priority 1995, dated 2006).

Legend:
[1] = literature report; cited from earlier work
[2] = test system: female Sprague-Dawley rats; test: Non-stop transvesical cystometrogram in urethane-anesthetized rats (continuous cystometry); assay type: in vivo
Method: Ten female Sprague-Dawley rats having a mean weight of 263±19 g were anesthetized with urethane (1.2 g/k, sc.). A midline incision was performed to expose the bladder and a 23G catheter was inserted into the bladder dome for the measurement of intravesical pressure. A non-stop transvesical cystometrogram, as described in J. Pharmacological. Methods, 15, pp. 157-167 (1986), was used, at a filling rate of 0.216 ml/min. of saline, to access the filling and voiding characteristics of the bladder. Through the continuous cystometry method thus afforded, consecutive micturition could be recorded. Dextromethorphan was given at intravenous does of: 1.0, 3.0, 10, 30, 50 mg/kg after the initial baseline micturition sequence was reliably measured for approximately 12 min. From these recordings the absolute values in maximum pressure obtained and the frequency of micturition was measured. A dose response curve illustrating the effect of dextromethorphan on the absolute micturition pressures in the range of 1-50 mg/kg is given in FIG. 1. Data given are mean and SE.

| Compound | frequency in micturition [1] | volume evoked micturition reflex ([2]; increasing intravenous doses 1.0-50 mg/kg, cystometrogram, anesthetized rats) | reduction in detrusor pressure ([2]; intravenous 10 mg/kg) [%] | frequency of micturition ([2]; intravenous 1-50 mg/kg, dose response, FIG. 2) | reduction in detrusor pressure ([2]; intravenous dose level of 3 mg/kg) | effect on detrusor pressure at high doses (initial increase before suppression) ([2]; intravenous doses higher than 10 mg/kg) | volume evoked micturition contractions ([2]; intravenous doses in the range of 10-30 mg/kg) |
| --- | --- | --- | --- | --- | --- | --- | --- |
| C[C@]12N[C@H](Cc3ccccc31)c1ccccc12 [MK-801] | increase in frequency in micturition |  |  |  |  |  |  |
| COc1ccc2c(c1)[C@@]13CCCC[C@H]1[C@@H](C2)N(C)CC3 [dextromethorphan, (+)-3-methoxy-N-methylmorphinan] |  | suppressed in a dose sensitive manner | 50 | decrements gradually with respect to dose | significant sustained reduction | bimodal, producing an initial increase in detrusor pressure before suppression | almost totally suppressed |
